Experimental data from US9809562B2, “NAT10 modulators for treating or preventing laminopathies, aging and cancer” (CAMBRIDGE ENTERPRISE LIMITED, priority 2014, dated 2017).
Where a name gives a salt, the structure may show the parent alone.

Key:
[1] = tested on: HGPS AG11498 cells; assay: Senescence-associated β-galactosidase in HGPS cells; assay type: cell-based, human; settings: HGPS AG11498; Remodelin 1 μM, Pifithrin alpha 10 μM
Method: (§1) The following KAT and KDAC inhibitors were used in the nuclear shape rescue screen, incubating cells with the molecules for 16 hours: trichostatin A (1 μM), sodium butyrate (5 mM), tubacin (10 μM), SAHA (5 μM), curcumin (10 μM), garcinol (50 μM), anacardic acid (1 μM), MB-3 (5 μM), 4-(4-chlorophenyl)-2-(2-cyclopentylidenehydrazinyl)thiazole (Compound 2) (50 μM), 4-(4-chlorophenyl)-2-(2-cyclopentylidene-1-(prop-2-yn-1-yl)hydrazinyl)thiazole (Compound 3) (50 μM) and cyclopentylidene-[4-(4-cyanophenyl)thiazol-2-yl)hydrazine (Compound 1) (Remodelin) (10 to 50 μM). For HGPS cellular fitness assays, Remodelin was incubated at 1 μM for 1 to 10 days, renewing the medium every 3 days. For long-term senescence assay, cells were kept and passaged in medium containing 1 μM Remodelin or DMSO only for 12 population doublings. Senescence was assessed after 8 days of Remodelin treatment when cells were at Population Doubling 12, and then after several weeks of Remodelin treatment, when cells reached Population Doubling 24 using the Senescence β-Galactosidase Staining Kit #9860 from Cell Signaling. Nocodazole, colchicine and latrunculin A (Sigma-Aldrich) were used at 200 ng/ml, 1 μg/ml and 1 μM respectively. Aphidicolin (Sigma-Aldrich) was used at 5 μg/ml for 16 h. Farnesyltransferase inhibitor FTI-277 was purchased from Tocris Bioscience and used at 5 μM. ATMi (KU55933) and ATRi (ATR-45) were obtained from Tocris Bioscience and from the Ohio State University respectively and used at 10 μM and 500 nM. Pifithrin alpha (Sigma-Aldrich) was used at 10 μM.

[2] = tested on: Lamin A/C depleted (siLMNA) U2OS cells; assay: Nuclear shape rescue (DAPI staining, nuclear circularity) in Lamin A/C depleted cells; assay type: cell-based, human; settings: 16 hours, Compound 2 and 3 50 μM, MB-3 5 μM, FTI 5 μM, nocodazole 200 ng/ml, colchicine 1 μg/ml, latrunculin A 1 μM
Method: (§2) U2OS and SaOS-2 osteosarcoma cells, HeLa cervical cancer cells, A431 melanoma cells, NCI-SNU5 gastric cancer cells, MRC-5 lung fibroblast cells and Werner syndrome patient-derived SV40 fibroblast cells were grown in Dulbecco's modified Eagle medium (DMEM, Sigma-Aldrich) supplemented with 10% fetal bovine serum (BioSera), 2 mM L-glutamine, 100 U per ml penicillin, 100 μg ml^−1 streptomycin. Normal skin primary fibroblasts GM03440 and Hutchinson Gilford Progeria Syndrome (HGPS) skin primary fibroblasts AG11498 and AG06297 were purchased from Coriell Cell Repositories and used between passage number 9-12 and 20-23 respectively. Cells were grown in DMEM supplemented as above. RPE-1 retinal pigment epithelial cells were grown in DMEM and Ham F12 mix medium supplemented as above and buffered with sodium bicarbonate. HMV-II melanoma cell line, 22RV1 prostate carcinoma cells, NCI-H82 and NCI-H69 lung carcinoma cells, and NCI-N87 gastric cancer cell lines were grown in RPMI-1640 medium (Sigma-Aldrich) supplemented as above. Stably transfected U2OS cells were maintained in standard medium containing 1 mg ml^−1 G418 (Invitrogen). The siRNA duplexes were obtained from Life Sciences: Lamin A/C stealth RNAi: […] (SEQ ID NO: 1) and […] (SEQ ID NO: 2), NAT10 stealth RNAi: […] (SEQ ID NO: 3), and as control siRNA, stealth RNAi negative control duplexes were used. Plasmid DNA and siRNA transfections were carried out using Lipofectamine 2000 and Lipofectamine RNAiMax (Life Sciences) respectively, following the manufacturer's instructions. Cells were analysed 48 to 72 hours after transfection.
as §1
CellProfiler software was used to quantify nuclear circularity and nuclear area from DAPI staining pictures, using the “object size shape” measurement. The AreaShape measurement allowed the calculation of the Form Factor index ([…]) corresponding to circularity (a Form Factor of 1 reflecting a perfect circle), as well as the calculation of nuclear Area.
Lamin A/C was depleted by siRNA in U2OS cells (siLMNA) to induce misshapen nuclei. Cells were then treated for 16 h with various analogues of Compound 2 and nuclear shape rescue was analysed by DAPI staining. The results are shown in FIG. 18 and FIG. 19 which display the structures of the tested molecules and their ability to rescue nuclear shape.

[3] = tested on: HGPS primary fibroblasts (AG11498 and AG06267); assay: Misshapen nuclei in HGPS cells; assay type: cell-based, human; settings: HGPS patient fibroblasts
Method: as §2
as §1, with “Aphidicolin (Sigma-Aldrich) was used at 5 μg/ml for 16 h. Farnesyltransferase inhibitor FTI-277 was purchased from Tocris Bioscience and used at 5 μM. ATMi (KU55933) and ATRi (ATR-45) were obtained from Tocris Bioscience and from the Ohio State University respectively and used at 10 μM and 500 nM. Pifithrin alpha (Sigma-Aldrich) was used at 10 μM.” left out

[4] = tested on: LMNA knock out (KO) U2OS cell line; assay: Cell growth of LMNA KO versus LMNA WT U2OS cells (IncuCyte ZOOM); assay type: cell-based, human; settings: U2OS LMNA KO
From the text: LMNA knock out (KO) U2OS cell line was engineered using CripR/Cas9 technology. The sensitivity of LMNA KO cells to Compound 2 was compared to cells expressing wild type LMNA (LMNA WT). Cell growth was monitored automatically over time using an IncuCyte ZOOM®. The results are shown in FIG. 21 which has been split into two graphs for easier reading of the curves.

[5] = tested on: farnesyltransferase activity (pre-Lamin A cleavage and maturation); assay: Lamin A processing by western blotting; assay type: cell-based, human
Method: as §1, with “Nocodazole, colchicine and latrunculin A (Sigma-Aldrich) were used at 200 ng/ml, 1 μg/ml and 1 μM respectively. Aphidicolin (Sigma-Aldrich) was used at 5 μg/ml for 16 h. Farnesyltransferase inhibitor FTI-277 was purchased from Tocris Bioscience and used at 5 μM. ATMi (KU55933) and ATRi (ATR-45) were obtained from Tocris Bioscience and from the Ohio State University respectively and used at 10 μM and 500 nM. Pifithrin alpha (Sigma-Aldrich) was used at 10 μM.” left out
Total cell extracts were prepared by scraping cells in SDS lysis buffer (4% SDS, 20% glycerol, and 120 mM Tris-HCl, pH 6.8), boiling for 5 minutes at 95° C., followed by 10 strokes through a 25-gauge needle. […] Detection and quantification was performed with an imager (Odyssey; LI-COR Biosciences).

[6] = tested on: normal human fibroblasts; assay: Nuclear shape of normal fibroblasts, with or without FTI; assay type: cell-based
From the text: FIG. 11: Remodelin prevents FTI induced nuclear shape defects in non-progeric cells. A) Analysis of Lamin A/C processing after Remodelin or FTI treatment, showing that Remodelin is not a FTI. B) Representative pictures of Lamin A/C IF staining after the indicated treatments. Arrows indicate FTI induced misshapen nuclei in normal fibroblasts. Scale bar: 50 μm. C) Quantification of misshapen nuclei with the indicated cell lines and inhibitor treatments (means of three independent experiments±s.e.m. n>178). D) Representative pictures of DAPI staining showing effects of FTI and Remodelin on nuclear shape of U2OS cells. Scale bars: 20 μm.
U2OS and SaOS-2 osteosarcoma cells, HeLa cervical cancer cells, A431 melanoma cells, NCI-SNU5 gastric cancer cells, MRC-5 lung fibroblast cells and Werner syndrome patient-derived SV40 fibroblast cells were grown in Dulbecco's modified Eagle medium (DMEM, Sigma-Aldrich) supplemented with 10% fetal bovine serum (BioSera), 2 mM L-glutamine, 100 U per ml penicillin, 100 μg ml^−1 streptomycin. […] Cells were analysed 48 to 72 hours after transfection.
The following KAT and KDAC inhibitors were used in the nuclear shape rescue screen, incubating cells with the molecules for 16 hours: trichostatin A (1 μM), sodium butyrate (5 mM), tubacin (10 μM), SAHA (5 μM), curcumin (10 μM), garcinol (50 μM), anacardic acid (1 μM), MB-3 (5 μM), 4-(4-chlorophenyl)-2-(2-cyclopentylidenehydrazinyl)thiazole (Compound 2) (50 μM), 4-(4-chlorophenyl)-2-(2-cyclopentylidene-1-(prop-2-yn-1-yl)hydrazinyl)thiazole (Compound 3) (50 μM) and cyclopentylidene-[4-(4-cyanophenyl)thiazol-2-yl)hydrazine (Compound 1) (Remodelin) (10 to 50 μM). […] Senescence was assessed after 8 days of Remodelin treatment when cells were at Population Doubling 12, and then after several weeks of Remodelin treatment, when cells reached Population Doubling 24 using the Senescence β-Galactosidase Staining Kit #9860 from Cell Signaling. […]

[7] = tested on: U2OS cells transfected with siCT or siLMNA; assay: Cell density after cycloheximide (DAPI staining); assay type: cell-based, human; settings: 24 h treatment
Method: FIG. 16: Compound 2 decreases protein translation of Lamin A/C depleted cells. A) U2OS cells transfected with siRNA control (siCT) or siRNA Lamin A/C (siLMNA) were plated at the same density, treated with cycloheximide (CHX) for 24 h to inhibit protein synthesis and stained with DAPI. […] B) Protein synthesis was measured by quantifying the incorporation of HPG, a clickable analogue of methionine.

[8] = tested on: cells (sub-cellular distribution); assay: Fluorescent labelling of clickable molecules (sub-cellular distribution); assay type: cell-based; settings: 2 hours pre-incubation, Alexa fluor 488 Azide click
Method: Cells were pre-incubated with clickable molecules Compound 3 or Reference Compound A (1-Chloro-4-ethynilbenzene, purchased from Sigma-Aldrich) for 2 hours before being fixed and permeabilised as described above. Click reaction was prepared using Invitrogen Click-iT reagents with Alexa fluor 488 Azide and incubated with fixed cells for 1 hour in the dark. In case of co-labelling with another protein, the click reaction was performed before the antibody incubations.

Row | Compound | nuclear shape / nuclear circularity rescue [2] | misshapen nuclei / nuclear shape of HGPS cells [3] | other results
1 | Pifithrin [reference compound] |  |  | senescence of HGPS cells (β-galactosidase positive cells) [1]: none of these compounds decrease the senescence
2 | COc1cc2c(c(OC)c1OC)-c1ccc(OC)c(=O)cc1[C@@H](NC(C)=O)CC2 [colchicine] | also rescued the nuclear shape defects of siLMNA cells | also rescued the nuclear shape defects | 
3 | FC(F)(F)c1ccc(-c2csc(NN=C3CCCC3)n2)cc1 [Compound 13, 4-(4-Trifluoromethylphenyl)-2-(2-cyclopentylidenehydrazinyl)thiazole Hydrobromide Salt] |  |  | potency on LMNA KO cell growth inhibition compared to Compound 2 [4]: increased potency of Compound 13, compared to Compound 2
4 | COC(=O)[C@H](CCSC)NC(=O)c1ccc(NC[C@@H](N)CS)cc1-c1ccccc1 [FTI, reference compound] | does not improve nuclear morphology in LMNA-depleted cells | improves the nuclear shape of HGPS cells | pre-Lamin A processing [5]: caused accumulation of the pre-Lamin A intermediate; nuclear shape of normal cells [6]: has the opposite effect on normal cells
5 | C=C1C(=O)OC(CCC)C1C(=O)O (stereo not drawn) [MB-3] | did not improve nuclear circularity |  | 
6 | C[C@@H]1C[C@@H]([C@H](O)CC2CC(=O)NC(=O)C2)C(=O)[C@@H](C)C1 [CHX, cycloheximide] |  |  | resistance of siLMNA versus siCT cells to protein synthesis inhibition [7]: siLMNA cells are more resistant to CHX
7 | C/C1=C/C(=O)O[C@@H]2C[C@@H](CC[C@H](C)/C=C\C=C\CC1)O[C@@](O)([C@@H]1CSC(=O)N1)C2 [latrunculin A] | increased nuclear distortion |  | 
8 | C#Cc1ccc(Cl)cc1 [Reference Compound A, 1-Chloro-4-ethynilbenzene, reference compound] | inactive |  | sub-cellular distribution of fluorescently labelled molecule [8]: little or no cellular staining
9 | COC(=O)Nc1nc2ccc(C(=O)c3cccs3)cc2[nH]1 [nocodazole] | also rescued the nuclear shape defects of siLMNA cells | also rescued the nuclear shape defects | 
